# Earlier results in US20230346830A1 (priority 2020, published 2023).
# Where two headings read alike, the source gives them in different places.
# Assays:
# [1] = system: severe acute respiratory syndrome SARS; details: in vivo
# [2] = system: broad range of microorganisms; details: no less than 160 ppm, five hours of continuous exposure
# [3] = 160 ppm for 30 min every 3.5 hours, intermittent
SMILES,replication cycle of SARS CoV (SARS CoV),"survival of infected mice (influenza WSN/33; administered prophylactically or post-influenza infection, 80 ppm continuous or 160 ppm intermittent)",lung viral load between experimental groups (influenza WSN/33; influenza-infected mice),"effect on the virus (influenza WSN/33; influenza-infected mice, continuously at 80 ppm or intermittently at 160 ppm for 30 minutes followed by 3½ hours of breathing air)",arterial oxygen saturation [1],lung infiltrates [1],antimicrobial response in vitro [2],methemoglobinemia [3],inhibition of the virus replication cycle compared with cytokine treatment (SARS CoV; 50 μM SNAP),reduction in the yield of progeny virus (SARS CoV; 100 μM SNAP),viral RNA production (SARS CoV; 400 μM SNAP),"inhibitory effect on yield of progeny virus (SARS CoV; 400 μM SNAP, compared with 100 μM)",replication cycle of SARS CoV (SARS CoV; concentration-dependent)
"[N]=O [NO, Nitric oxide]",specifically inhibits,failed to improve survival,No difference,no effect,improved,decreased the spread and intensity,non-specific antimicrobial response,could prevent methemoglobinemia,–,–,–,–,–
"CC(=O)N[C@H](C(=O)O)C(C)(C)SN=O (racemic) [SNAP, S-nitroso-N-acetylpenicillamine]",–,–,–,–,–,–,–,–,same level of inhibition,2 log,significantly inhibited,even more pronounced,significantly inhibited
